# Article PMC12378234, “Enzyme-mediated aminoglycoside resistance without target mimicry” (Communications Chemistry, 2025)
# Values joined by “and” are separate entries in the source; they are usually repeats but may differ in a detail not shown here. Equal values may be shown once. Read-outs that look alike come from different tables or passages of the source.
# Legend:
# AAC(3)-IIIa = target: T1, AAC(3)-IIIa (Pseudomonas aeruginosa, UniProt P29808); assay: Isothermal titration calorimetry; type: binding, P. aeruginosa
# T1 construct: 6xHis-tag (thrombin-cleavable, pET15b) (N); made in house; host or cells: LOBSTR E. coli
# Procedure: (§1) To accurately measure protein ligand interactions, the concentration of our proteins of interest was measured spectrophotometrically using the NanoDrop OneC Spectrometer (Thermo Scientific). ITC experiments were performed on a MicroCal iTC 200 (General Electric) at 25 °C with stirring at 750 rpm. Unique buffer solutions were used for each enzyme. AAC(3)-Ia was prepared in 50 mM HEPES, pH 7, and 150 mM NaCl. AAC(3)-IIIa was prepared in 120 mM Tris, pH 7.5, and 150 mM NaCl. AAC(3)-XIa was prepared in 20 mM Tris, pH 7.5, and 150 mM NaCl. The cell contained 550 μM AAC(3)-Ia, 350 μM AAC(3)-IIIa, or 450 μM AAC(3)-XIa. All experiments also contained 5000 μM of coenzyme A trilithium salt in the cell. […] In all ITC experiments, aminoglycosides were prepared in the same buffering solution as the target protein. The ligands were injected 29 times ([…] per injection) with a 180 s interval between injections. Results were analyzed using ORIGIN software version 7E (MicroCal) using the molecular weight of a single protomer of each protein and fitted with a two-set of sites binding model (Supplementary Fig. 5). Data analysis was performed in Microsoft Excel and GraphPad5 software. One-way ANOVA and Tukey’s multiple comparison tests were used to determine the statistical significance of binding affinities.
# [1] = tested on: BL21(DE3) E. coli transformed with pUCP18 vector expressing untagged AAC(3)-IIIa; type: cell-based; conditions: E. coli expressing AAC(3)-IIIa
# Procedure: (§2) Ten milliliters of LB containing […] ampicillin were inoculated from glycerol stocks of transformed BL21(DE3) E. coli containing genes expressing the proteins of interest in pUCP18 vectors. These cultures were incubated at 37 °C with 200 rpm agitation for 16 h. Turbidity was measured through OD600 with a NanoDrop OneC Spectrometer (Thermo Scientific). From the initial cultures, secondary 10 mL cultures were prepared with OD600 values of 0.1. These cultures were grown until OD600 values of 0.4–0.6 were reached and diluted to bring all cultures to the same OD600. Cultures were induced with 1 mM Isopropyl β-D-1-thiogalactopyranoside and incubated for 4 h. Two microliters of culture was added to 198 μL of LB with an appropriate aminoglycoside titration concentration. Each titration point was repeated n = 4 times. The formulated 96-well culture plate (Sarstedt) had OD600 measured on a 20-min interval over 17 h using a BioTek Cytation 5 Cell Imaging Multimode Reader, incubating at 37 °C with 282 cpm orbital agitation. Experiments were repeated with fresh cultures on separate days to ensure consistent trends. Data was analyzed in Microsoft Excel and GraphPad5. The remainder of the culture immediately had its RNA isolated for qPCR experiments.
# [2] = tested on: BL21(DE3) E. coli transformed with pUCP18 vector expressing untagged AAC(3)-Ia; type: cell-based; conditions: E. coli expressing AAC(3)-Ia
# Procedure: as §2
# [3] = tested on: BL21(DE3) E. coli transformed with pUCP18 vector expressing untagged AAC(3)-XIa; type: cell-based; conditions: E. coli expressing AAC(3)-XIa
# Procedure: as §2
# AAC(3)-XIa = AAC(3)-XIa (Corynebacterium striatum, UniProt A0ABX7DED9); assay: Isothermal titration calorimetry; type: binding; conditions: 25 °C, with coenzyme A, n = 3
# Procedure: as §1
# AAC(3)-Ia = AAC(3)-Ia (Acinetobacter baumannii, UniProt D7R512); assay: Isothermal titration calorimetry; type: binding
# Procedure: as §1
# [4] = tested on: BL21(DE3) E. coli transformed with pUCP18 vector expressing AAC(3)-Ia; assay: Antibiotic susceptibility testing, endpoint MIC assay; type: cell-based; conditions: Escherichia coli, 20 h, read-out: Endpoint minimum inhibitory concentration (MIC)
# Procedure: (§3) Ten milliliters of cultures of LB containing […] ampicillin were inoculated from glycerol stocks of transformed BL21(DE3) E. coli containing genes expressing the proteins of interest in pUCP18 vectors. Experiments were performed using 6xHis-tagged fusion-proteins, as well as untagged wild-type proteins. These cultures were incubated at 37 °C with 200 rpm agitation for 16 h. Turbidity was measured through OD600 with a NanoDrop OneC Spectrometer (Thermo Scientific). From the initial cultures, secondary 10 mL cultures were prepared with OD600 values of 0.1. These cultures were grown until OD600 values of 0.4–0.6 were reached and diluted to bring all cultures to the same OD600. Cultures were induced with 1 mM Isopropyl β-D-1-thiogalactopyranoside and incubated for 4 h. Cultures were diluted to 1 × 10^6 cells mL^−1. Two microliters of culture was added to 198 μL of LB with an appropriate aminoglycoside titration concentration. The formulated 96-well culture plate (Sarstedt) was incubated at 37 °C with 120 rpm orbital agitation. The remainder of the bacterial culture was immediately lysed and processed for Western blotting. OD600 was measured after 20 h using the Molecular Devices Spectra MAX 190 plate reader.
# [5] = tested on: BL21(DE3) E. coli transformed with pUCP18 vector expressing AAC(3)-IIIa; assay: as above; type: cell-based; conditions: Escherichia coli, 20 h, read-out: Endpoint minimum inhibitory concentration (MIC)
# Procedure: as §3
# [6] = tested on: BL21(DE3) E. coli transformed with pUCP18 vector expressing AAC(3)-XIa; assay: as above; type: cell-based; conditions: Escherichia coli, 20 h, read-out: Endpoint minimum inhibitory concentration (MIC)
# Procedure: as §3
# [7] = tested on: empty pUCP18 vector transformed E. coli; assay: as above; type: cell-based; conditions: Escherichia coli; empty pUCP18 vector control E. coli; after 20 h of growth; read-out: Endpoint minimum inhibitory concentration (MIC)
# Procedure: as §3
# [8] = tested on: CNC(C)C1CCC(N)C(OC2C(N)CC(N)C(OC3OCC(C)(O)C(NC)C3O)C2O)O1; assay: purified protein, by the assay type; conditions: other: AAC(3)-IIIa, 22 °C, pH 6.5, 150 μM acetyl coenzyme A, n = 3
# Procedure: The acetylation of aminoglycosides was measured by a coupled assay, where the formation of pyridine-4-thiolate can be detected at 324 nm[42],[43]. The kinetic assays were performed at room temperature (22 °C) in quartz cuvettes (pathlength 1 cm) at a final volume of 0.8 mL. Reaction solution contained 25 mM MOPS pH 6.5, 100 mM NaCl, 500 μM 4,4’-dipyridyl disulfide (Aldrithiol™-4, Sigma-Aldrich), 150 μM acetyl coenzyme A, and aminoglycoside concentrations varying from 1.25 to 160 μM. […] All reactions were run in triplicate, and data analysis was performed using GraphPad5 software. One-way ANOVA and Tukey’s multiple comparison tests were used to determine the statistical significance of catalytic efficiencies.
# [9] = target: AAC(3)-Ia from Acinetobacter baumannii (Acinetobacter baumannii); assay: crystal structure; AAC(3)-Ia with CoASH, with or without sisomicin; sitting-drop vapor diffusion at 22 °C, 0.1 M Tris pH 8.5, 0.05 M MgCl2, 20% EtOH, 35% PEG 400; one protomer per asymmetric unit, dimer by crystallographic symmetry
# [10] = tested on: CN[C@@H]1[C@@H](O)[C@@H](O[C@@H]2[C@@H](O)[C@H](O[C@H]3OC(CN)=CC[C@H]3N)[C@@H](N)C[C@H]2N)OC[C@]1(C)O; assay: Michaelis-Menten kinetics, coupled acetylation assay (pyridine-4-thiolate at 324 nm); type: biochemical, Corynebacterium striatum; conditions: other: AAC(3)-XIa, 22 °C, pH 6.5, 150 μM acetyl coenzyme A, n = 3
# Procedure: (§4) The acetylation of aminoglycosides was measured by a coupled assay, where the formation of pyridine-4-thiolate can be detected at 324 nm[42],[43]. The kinetic assays were performed at room temperature (22 °C) in quartz cuvettes (pathlength 1 cm) at a final volume of 0.8 mL. Reaction solution contained 25 mM MOPS pH 6.5, 100 mM NaCl, 500 μM 4,4’-dipyridyl disulfide (Aldrithiol™-4, Sigma-Aldrich), 150 μM acetyl coenzyme A, and aminoglycoside concentrations varying from 1.25 to 160 μM. The reaction was initialized by the addition of AAC(3)-Ia to a final concentration of 0.2 μM, AAC(3)-XIa to a final concentration of 1.94 μM, or AAC(3)-IIIa to a final concentration of 0.4 μM, where UV absorbance was measured over 5 min. All reactions were run in triplicate, and data analysis was performed using GraphPad5 software. One-way ANOVA and Tukey’s multiple comparison tests were used to determine the statistical significance of catalytic efficiencies.
# [11] = tested on: CNC(C)C1CCC(N)C(OC2C(N)CC(N)C(OC3OCC(C)(O)C(NC)C3O)C2O)O1; assay: as above; type: biochemical, Corynebacterium striatum; conditions: other: AAC(3)-XIa, 22 °C, pH 6.5, 150 μM acetyl coenzyme A, n = 3
# Procedure: as §4
# [12] = target: AAC(3)-XIa from Corynebacterium striatum (Corynebacterium striatum); assay: crystal structure; AAC(3)-XIa partial-apo, with AcCoA, or with CoASH/AcNHCoA and an aminoglycoside; sitting-drop vapor diffusion at 22 °C, 0.1 M trisodium acetate pH 4.6, 10–30% MPD, 0–24% PEG 200; both protomers of the dimer in the asymmetric unit
# [13] = first set of sites, 25 °C, with coenzyme A, n = 3
# [14] = second set of sites, 25 °C, with coenzyme A, n = 3
# [15] = 6 μg mL^−1 sisomicin, 3 μg mL^−1 gentamicin
# [16] = AAC(3)-XIa, second set of sites
# [17] = AAC(3)-Ia, first set of sites, 25 °C, with coenzyme A, n = 3
# [18] = AAC(3)-Ia, second set of sites, 25 °C, with coenzyme A, n = 3
compound,measurement,setting,value
"CNC(C)C1CCC(N)C(OC2C(N)CC(N)C(OC3OCC(C)(O)C(NC)C3O)C2O)O1 (centres unmarked) [Gentamicin, gentamicin]",TΔS,AAC(3)-IIIa; [13],3.6 ± 0.053 kcal/mol
same,ΔG,AAC(3)-IIIa; [13],-6.94 ± 0.077 kcal/mol
same,ΔH,AAC(3)-IIIa; [13],-3.34 ± 0.056 kcal/mol
same,N (sites),"AAC(3)-IIIa; first set of sites, two-set of sites model, 25 °C, with coenzyme A, n = 3",0.63 ± 0.01 sites
same,Kd,"AAC(3)-IIIa; first set of sites, two-set of sites model, 25 °C, with coenzyme A, n = 3, read-out: Kd",8.3 ± 0.2 µM
same,Kd,"AAC(3)-IIIa; individual replicates, raw data behind Fig. 6, read-out: Kd",8 µM and 8.13 µM and 8.7 µM
same,N2 (sites),AAC(3)-IIIa; [14],0.63 ± 0.01 sites
same,TΔS 2,AAC(3)-IIIa; [14],5.24 ± 0.043 kcal/mol
same,ΔG 2,AAC(3)-IIIa; [14],-6.69 ± 0.077 kcal/mol
same,ΔH 2,AAC(3)-IIIa; [14],-1.46 ± 0.063 kcal/mol
same,Kd,"AAC(3)-IIIa; second set of sites, 25 °C, with coenzyme A, n = 3, read-out: Kd2",12.4 ± 0.5 µM
same,Level of resistance relative to empty vector control (OD600 growth curve),[1]; [15],greater level of resistance than the empty vector control
same,Growth (OD600 growth curve),"[1]; 12 μg mL^−1 antibiotic, 17 h",none of the strains of transformed E. coli were able to grow at all
same,Growth (OD600 growth curve),"[2]; 12 μg mL^−1 antibiotic, 17 h",none of the strains of transformed E. coli were able to grow at all
same,Level of resistance relative to empty vector control (OD600 growth curve),[2]; all concentrations tested,unable to outperform the empty vector control in any experiments
same,Level of resistance relative to empty vector control (OD600 growth curve),[3]; [15],greater level of resistance than the empty vector control
same,Growth (OD600 growth curve),"[3]; 12 μg mL^−1 antibiotic, 17 h",none of the strains of transformed E. coli were able to grow at all
same,TΔS,"AAC(3)-XIa; AAC(3)-XIa, first set of sites",-1.38 ± 0.171 kcal/mol
same,ΔG,"AAC(3)-XIa; AAC(3)-XIa, first set of sites",-5.38 ± 2.88 kcal/mol
same,ΔH,"AAC(3)-XIa; AAC(3)-XIa, first set of sites",-6.77 ± 2.87 kcal/mol
same,N (sites),"AAC(3)-XIa; AAC(3)-XIa, first set of sites, two-set of sites model",0.28 ± 0.06 sites
same,N2 (sites),AAC(3)-XIa; [16],0.31 ± 0.05 sites
same,TΔS 2,AAC(3)-XIa; [16],-2.916 ± 1.036 kcal/mol
same,ΔG 2,AAC(3)-XIa; [16],-7.042 ± 1.18 kcal/mol
same,ΔH 2,AAC(3)-XIa; [16],-9.958 ± 0.567 kcal/mol
same,Kd,"AAC(3)-XIa; Kd2, AAC(3)-XIa, second set of sites",8.5 ± 5.5 µM
same,Kd,"AAC(3)-XIa; Kd, AAC(3)-XIa, first set of sites, two-set of sites model",6.1 ± 1.8 µM
same,TΔS,AAC(3)-Ia; [17],-0.808 ± 0.343 kcal/mol
same,ΔG,AAC(3)-Ia; [17],-6.52 ± 0.418 kcal/mol
same,ΔH,AAC(3)-Ia; [17],-7.33 ± 0.238 kcal/mol
same,N (sites),"AAC(3)-Ia; AAC(3)-Ia, first set of sites, two-set of sites model, 25 °C, with coenzyme A, n = 3",0.49 ± 0.02 sites
same,N2 (sites),AAC(3)-Ia; [18],0.57 ± 0.02 sites
same,TΔS 2,AAC(3)-Ia; [18],4.24 ± 0.08 kcal/mol
same,ΔG 2,AAC(3)-Ia; [18],-6.3 ± 0.112 kcal/mol
same,ΔH 2,AAC(3)-Ia; [18],-2.06 ± 0.08 kcal/mol
same,Kd,"AAC(3)-Ia; Kd2, AAC(3)-Ia, second set of sites, 25 °C, with coenzyme A, n = 3",23.8 ± 0.3 µM
same,Kd,"AAC(3)-Ia; Kd, AAC(3)-Ia, first set of sites, two-set of sites model, 25 °C, with coenzyme A, n = 3",17.1 ± 3.2 µM
same,Kd,"AAC(3)-Ia; Kd, AAC(3)-Ia, individual replicates, raw data behind Fig. 6",23.5 µM and 13.4 µM and 14.4 µM
same,MIC,[4],6 µg/mL
same,MIC,[5],12 µg/mL
same,MIC,[6],12 µg/mL
same,MIC,[7],6 µg/mL
AAC(3)-IIIa (Pseudomonas aeruginosa),Km,[8],13 ± 4 µM
same,kcat,[8],36 ± 5 s⁻¹
same,kcat/Km,[8],2.7e+06 ± 1.1e+06 M⁻¹ s⁻¹
AAC(3)-Ia from Acinetobacter baumannii (enzyme),stoichiometry N,[9],2
AAC(3)-XIa (Corynebacterium striatum),Km,[10],6.8 ± 0.7 µM
same,kcat,[10],0.4 ± 0.01 s⁻¹
same,kcat/Km,[10],60000 ± 10000 M⁻¹ s⁻¹
same,Km,[11],0.8 ± 0.2 µM
same,kcat,[11],0.2 ± 0.003 s⁻¹
same,kcat/Km,[11],200000 ± 40000 M⁻¹ s⁻¹
AAC(3)-XIa from Corynebacterium striatum (enzyme),stoichiometry N,[12],2
